Molecular target: T1, human GnRH receptor (Homo sapiens, UniProt P30968)
T1 construct: expressed in transfected cells; host or cells: RBL cells, stably transfected (in general)
T1 sequence (P30968 1-328): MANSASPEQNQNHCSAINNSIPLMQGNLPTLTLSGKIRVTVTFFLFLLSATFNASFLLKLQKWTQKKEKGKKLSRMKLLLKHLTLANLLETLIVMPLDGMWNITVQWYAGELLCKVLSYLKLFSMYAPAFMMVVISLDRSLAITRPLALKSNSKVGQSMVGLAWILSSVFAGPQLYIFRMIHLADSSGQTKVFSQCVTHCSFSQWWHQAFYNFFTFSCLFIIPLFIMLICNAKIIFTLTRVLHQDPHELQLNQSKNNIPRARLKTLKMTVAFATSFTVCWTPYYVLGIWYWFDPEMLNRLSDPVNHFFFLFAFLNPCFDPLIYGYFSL
Experiment: Peptide competition radioligand binding displacement assay, human GnRH receptor membranes
Conditions: one or more of the peptide competition human receptor binding assays
Protocol: cDNA's of human, rhesus macaque, rabbit, dog and rat GnRH receptors are cloned into pcDNA3.1 (+) (Invitrogen). Full length sequences of all receptors are confirmed by DNA sequencing. HEK 293, CHO, COS-7, or rat basophilic leukemia (RBL) cells are stably transfected with human, rat, or macaque GnRH receptors and high expressing single cell clones (Bmax≧0.4 pMol/mg membrane protein) are isolated and maintained in Dulbecco's Modified Eagles Medium (DMEM) with following supplements: 10 mM HEPES; 2 mM L-glutamine; 1 mM Sodium Pyruvate; 50 U/mL penicillin, 50 μg/mL streptomycin; 10% Heat-inactivated Fetal Bovine Serum and 200 μg/mL Geneticin (G-418-Sulfate). Non-essential amino acids (0.1 mM) (Irvine Scientific; Santa Ana, Calif.) are included in the RBL cell media.
In general, initial peptide radioligand binding assays are carried out using membranes from stably transfected RBL cells. RBL stable clones are found to more consistently express high levels of GnRH receptor and are therefore used for subsequent binding studies as well as Ca^++ flux and inositol phosphate accumulation assays. Transiently transfected COS-7 cells are used for preparation of membranes containing GnRH receptors from multiple species (as well as those of mutant receptors for other studies) because of the convenience for rapidly analyzing multiple receptors.
HEK293 cells stably transfected with the human GnRH receptor are grown for two days after achieving confluence then are harvested by striking tissue culture flasks against a firm surface. Cells are collected by centrifugation at 1000 g for 5 minutes. Cell pellets are resuspended in 5% sucrose and homogenized using a polytron homogenizer for two 15 second homogenization steps. Cell homogenates are then centrifuged for 5 minutes at 3000 g to remove nuclei and the supernatant subsequently centrifuged for 30 minutes at 44,000 g to collect the membrane fraction. The membrane pellet is resuspended in GnRH binding buffer (10 mM HEPES, pH 7.5, 150 mM NaCl and 0.1% BSA) and aliquots immediately snap-frozen in liquid nitrogen and stored at −80° C. Protein content of the membrane suspension is determined using the Bio-Rad protein assay kit (Bio-Rad).
RBL cells stably transfected with the human GnRH receptor are grown to 80% confluency prior to harvesting. The cells are incubated at 37° C. for 10 min in 0.5 mM EDTA/PBS (Ca^++, Mg^++ free), and are dislodged from the plate by gentle rapping of the flasks. Cells are collected and pelleted by centrifugation at 1000 g for 5 minutes. Cell pellets are resuspended in buffer (DPBS supplemented with 10 mM MgCl2, 2 mM EGTA, pH=7.4), and cell lysis is performed using a pressure cell and applying N2 at a pressure of 900 psi for 30 min at 4° C. Unbroken cells and larger debris were removed by centrifugation at 1200 g for 10 min at 4° C. The cell membrane supernatant is then centrifuged at 45,000 g and the resulting membrane pellet is resuspended in assay buffer and homogenized on ice using a tissue homogenizer. Protein concentrations are determined using the Coomassie Plus Protein Reagent kit. Membranes are aliquoted and stored at −80° C. until ready for use.
COS-7 cells transiently transfected with GnRH receptors from different species (human, macaque, dog, rabbit, rat) or mutant GnRH receptors are prepared by bulk electroporation. COS-7 cells are obtained from American Type Cell Culture (Manassas, Va.) and are maintained in Dulbeccos's modified Eagle's medium (DMEM) (MediaTech Inc., Herndon, Va.) containing 10% fetal bovine serum, 10 mM HEPES, 2 mM L-glutamine, 1 mM sodium pyruvate, 50 U/mL penicillin, 50 μg/mL streptomycin. COS-7 cells are seeded in 500 cm^2 tissue culture plates and grown to confluency prior to cell transfection. […]

Ki, ≤ 100 nM:
CN(C(=O)c1ccc(Cl)c(-c2cnc(C(F)(F)F)cc2C#N)c1)c1ccccc1OCC(C)(C)C(=O)O [52-1, 3-(2-{[4-Chloro-3-(4-cyano-6-trifluoromethyl-pyridin-3-yl)-benzoyl]-methyl-amino}-phenoxy)-2,2-dimethyl-propionic acid]
CN(C(=O)c1ccc(Cl)c(-c2cnc(C(F)(F)F)cc2C#N)c1)c1ccccc1OCCc1nnn[nH]1 [45-1, 4-Chloro-3-(4-cyano-6-trifluoromethyl-pyridin-3-yl)-N-methyl-N-{2-[2-(1H-tetrazol-5-yl)-ethoxy]-phenyl}-benzamide]
COc1ccccc1N(C)C(=O)c1cc(-c2cnc(C(F)(F)F)cc2C#N)c(Cl)cc1OCCCN1CCC[C@H]1C(=O)O [49-1, (S)-1-(3-{5-Chloro-4-(4-cyano-6-trifluoromethyl-pyridin-3-yl)-2-[(2-methoxy-phenyl)-methyl-carbamoyl]-phenoxy}-propyl)-pyrrolidine-2-carboxylic acid]
COc1ccccc1N(C)C(=O)c1ccc(Cl)c(-c2ccc(C(F)(F)F)nc2)c1 [2-11]
CN(C(=O)c1ccc(Cl)c(-c2cnc(C(F)(F)F)cc2C#N)c1)c1ccccc1OCCC(=O)O [11-4, 3-(2-{[4-chloro-3-(4-cyano-6-trifluoromethyl-pyridin-3-yl)-benzoyl]-methyl-amino}-phenoxy)-propionic acid]
COc1ccccc1N(C)C(=O)c1cc(-c2cnc(C(F)(F)F)cc2C#N)c(Cl)cc1OCCN1CCCC1=O [42-1, 4-Chloro-5-(4-cyano-6-trifluoromethyl-pyridin-3-yl)-N-(2-methoxy-phenyl)-N-methyl-2-[2-(2-oxo-pyrrolidin-1-yl)-ethoxy]-benzamide]
COc1ccccc1N(C)C(=O)c1cc(-c2cnc(C(F)(F)F)cc2C#N)c(Cl)cc1OCCCC(=O)OC(C)OC(=O)OC(C)C (centres unmarked) [37-4, 4-{5-chloro-4-(4-cyano-6-trifluoromethyl-pyridin-3-yl)-2-[(2-methoxy-phenyl)-methyl-carbamoyl]-phenoxy}-butyric acid 1-isopropoxycarbonyloxy-ethyl ester]
CN(C(=O)c1cc(-c2cnc(C(F)(F)F)cc2C#N)c(Cl)cc1OCCCC(=O)O)c1ccccc1-c1ccco1 [34-16]
COc1ccccc1N(C)C(=O)c1ccc(Cl)c(-c2ccc(C(F)(F)F)cc2C#N)c1 [2-53]
Cc1cccc(OCCCO)c1N(C)C(=O)c1ccc(Cl)c(-c2ccc(C(F)(F)F)cc2C#N)c1 [10-1, 4-Chloro-3-(2-cyano-4-trifluoromethyl-phenyl)-N-[2-(3-hydroxy-propoxy)-6-methyl-phenyl]-N-methyl-benzamide]
Cc1cc(C#N)ncc1-c1cc(C(=O)N(C)c2c(C)cccc2OCCCO)ccc1Cl [9-5]
COc1ccccc1N(C)C(=O)c1cc(-c2cnc(C(F)(F)F)cc2C#N)c(Cl)cc1OCCN(C)C(C)=O [47-2]
COc1cccc(C)c1N(C)C(=O)c1ccc(Cl)c(-c2cnc(C(F)(F)F)cc2C)c1 [2-33]
COc1ccc(C)cc1N(C)C(=O)c1cc(-c2cnc(C(F)(F)F)cc2C#N)c(Cl)cc1OCCCC(=O)O [34-12]
CN(C(=O)c1ccc(Cl)c(-c2cnc(C(F)(F)F)cc2C#N)c1)c1ccccc1CCCC(=O)O [14-4]
COC(=O)CCCOc1cccc(C)c1N(C)C(=O)c1ccc(Cl)c(-c2cnc(C#N)cc2C)c1 [3-9]
COC(=O)c1ccc(Cl)cc1N(C)C(=O)c1cc(-c2cnc(C(F)(F)F)cc2C#N)c(Cl)cc1OC [39-8]
CSc1ccccc1N(C)C(=O)c1ccc(Cl)c(-c2cnc(C(F)(F)F)cc2C#N)c1 [2-81]
COc1cccc(C)c1N(C)C(=O)c1ccc(Cl)c(-n2c(C)cc(C(F)(F)F)nc2=O)c1 [30-10]
Cc1cc(C(F)(F)F)ncc1-c1cc(C(=O)N(C)c2ccccc2OCCCC(=O)O)ccc1Cl [4-6]
COc1cc(Cl)c(-c2cnc(C(F)(F)F)cc2C#N)cc1C(=O)N(C)c1cnccc1OC [39-20]
CN(C(=O)c1cc(-c2cnc(C(F)(F)F)cc2C#N)c(Cl)cc1OCCCC(=O)O)c1ccccc1OC(F)(F)F [34-3]
Cc1cc(C(F)(F)F)nc(=O)n1-c1cc(C(=O)N(C)c2cccc(F)c2F)ccc1Cl [30-13]
CN(C(=O)c1ccc(Cl)c(-c2cnc(C(F)(F)F)cc2C#N)c1)c1ccccc1OCCCc1nnn[nH]1 [28-1, 4-Chloro-3-(4-cyano-6-trifluoromethyl-pyridin-3-yl)-N-methyl-N-{2-[3-(1H-tetrazol-5-yl)-propoxy]-phenyl}-benzamide]
CN(C(=O)c1ccc(Cl)c(-c2cnc(C(F)(F)F)cc2C#N)c1)c1ccccc1OCCN1CCC[C@H]1C(=O)O [50-3]
Cc1cccc(C)c1N(C)C(=O)c1ccc(Cl)c(-n2c(C)cc(C(F)(F)F)nc2=O)c1 [30-11]
COc1cccc(C)c1N(C)C(=O)c1cc(-c2nc3ccccc3cc2C#N)c(Cl)cc1OCCCCO [21-3]
COC(=O)c1ccccc1N(C)C(=O)c1cc(-c2cnc(C(F)(F)F)cc2C#N)c(Cl)cc1OCCCC(=O)O [34-10]
COc1ccccc1N(C)C(=O)c1ccc(Cl)c(-c2ncc(C)cc2Cl)c1 [2-58]
Cc1cc(C(F)(F)F)nc(=O)n1-c1cc(C(=O)N(C)c2cccc(F)c2)ccc1Cl [30-17]
COc1c(Cl)cccc1N(C)C(=O)c1ccc(Cl)c(-c2cnc(C)cc2Cl)c1 [2-46]
CN(C(=O)c1ccc(Cl)c(-c2cnc(C(F)(F)F)cc2C#N)c1)c1ccccc1OCCCC(=O)O [4-10]
COCCN(C)C(=O)c1cc(-c2cnc(C(F)(F)F)cc2C#N)c(Cl)cc1OCCCC(=O)O [34-24]
COc1ccccc1N(C)C(=O)c1ccc(Cl)c(-c2ccc(Cl)nc2Cl)c1 [2-6]
Cc1cc(Cl)c(-c2cc(C(=O)N(C)c3c(C)cccc3C)ccc2Cl)cn1 [2-19]
COc1ccccc1N(C)C(=O)c1cc(-c2cnc(C(F)(F)F)cc2C#N)c(Cl)cc1OCCCn1cccc1 [42-10]
COc1ccccc1N(C)C(=O)c1ccc(Cl)c(-c2cnc(C(N)=O)cc2C)c1 [24-2, 5-{2-chloro-5-[(2-methoxy-phenyl)-methyl-carbamoyl]-phenyl}-4-methyl-pyridine-2-carboxylic acid amide]
COc1ccccc1N(C)C(=O)c1cc(-c2cnc(C(F)(F)F)cc2C#N)c(Cl)cc1OCCCc1cnoc1 [46-1, 4-Chloro-5-(4-cyano-6-trifluoromethyl-pyridin-3-yl)-2-(3-isoxazol-4-yl-propoxy)-N-(2-methoxyphenyl)-N-methyl-benzamide]
CN(C(=O)c1cc(-c2cnc(C(F)(F)F)cc2C#N)c(Cl)cc1OCCCC(=O)O)c1ccccc1-c1cnco1 [34-15]
CCOC(=O)CCCOc1cc(Cl)c(-c2cnc(C(F)(F)F)cc2C#N)cc1C(=O)N(C)c1ccccc1OC [43-1, 4-{5-Chloro-4-(4-cyano-6-trifluoromethyl-pyridin-3-yl)-2-[(2-methoxy-phenyl)-methyl-carbamoyl]-phenoxy}-butyric acid ethyl ester]
COc1ccccc1N(C)C(=O)c1cc(-c2cnc(C(F)(F)F)cc2C#N)c(Cl)cc1OCCCc1ccn(C)n1 [42-14]

— patent publication US8481738B2, “Gonadotropin-releasing hormone receptor antagonists and methods relating thereto” (Neurocrine Biosciences, Inc., priority 2007, dated 2013)
